Measurements reported in ChEMBL document CHEMBL1201862, “PubChem BioAssay data set” (2004).
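Where inhibition never reached the appropriate level, the endpoint shown equals the highest concentration tested. Otherwise, values were interpolated linearly from a five-concentration, 48-hour dose response in 96-well plates. GI50 marks 50% less growth.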 The source made the active and inactive calls. No stated cut-off is given here; in the data, active = GI50 up to about 1.1 µM and inactive = higher. Where a SMILES comes first, the peptide text is derived from it. [ ]: non-standard residue; d: D form. Ac5c = NC1(C(=O)O)CCCC1

Key:
Test in all cases: growth of human tumour cells (NCI), 48 h
OVCAR-5 = system: OVCAR-5
RPMI-8226 = system: RPMI-8226
NCI-H460 = system: NCI-H460
DU-145 = system: DU-145
HT-29 = system: HT-29
TK-10 = system: TK-10
OVCAR-3 = system: OVCAR-3
A549 = system: A549
HCT-116 = system: HCT-116
U-251 = system: U-251
HCC 2998 = system: HCC 2998
SK-MEL-2 = system: SK-MEL-2
CCRF-CEM = system: CCRF-CEM
OVCAR-8 = system: OVCAR-8
M14 = system: M14
SK-MEL-5 = system: SK-MEL-5
SK-OV-3 = system: SK-OV-3
SNB-19 = system: SNB-19
Malme-3M = system: Malme-3M
SR = system: SR

Row | SMILES | GI50 (OVCAR-5) | GI50 (RPMI-8226) | GI50 (NCI-H460) | GI50 (DU-145) | GI50 (HT-29) | GI50 (TK-10) | GI50 (OVCAR-3) | GI50 (A549) | GI50 (HCT-116) | GI50 (U-251) | GI50 (HCC 2998) | GI50 (SK-MEL-2) | GI50 (CCRF-CEM) | GI50 (OVCAR-8) | GI50 (M14) | GI50 (SK-MEL-5) | GI50 (SK-OV-3) | GI50 (SNB-19) | GI50 (Malme-3M) | GI50 (SR)
1 | O=C(Oc1c(Cl)cc(C2(c3cc(Cl)c(OC(=O)c4ccccc4)c(Cl)c3)CCCCC2)cc1Cl)c1ccccc1 | 14 µM (inactive) | 11.9 µM (inactive) | 6.65 µM (inactive) | 12.2 µM (inactive) | 14.6 µM (inactive) | 16.7 µM (inactive) | 10.9 µM (inactive) | 12.3 µM (inactive) | 13.2 µM (inactive) | 13.8 µM (inactive) | 10.1 µM (inactive) | 11.2 µM (inactive) | 8 µM (inactive) | 15.9 µM (inactive) | 14.5 µM (inactive) | 10.6 µM (inactive) | 15.5 µM (inactive) | 17.6 µM (inactive) | – | –
2 | NC1(C(=O)NC2(C(=O)O)CCCC2)CCCC1 (H-[Ac5c]-[Ac5c]-OH) | > 100 µM (inactive) | > 100 µM (inactive) | > 100 µM (inactive) | > 100 µM (inactive) | > 100 µM (inactive) | > 100 µM (inactive) | > 100 µM (inactive) | > 100 µM (inactive) | > 100 µM (inactive) | > 100 µM (inactive) | – | > 100 µM (inactive) | > 100 µM (inactive) | > 100 µM (inactive) | > 100 µM (inactive) | > 100 µM (inactive) | > 100 µM (inactive) | > 100 µM (inactive) | > 100 µM (inactive) | > 100 µM (inactive)
3 | Nn1c(CCCCCCCCc2nnc(COc3ccc4ccccc4c3O)n2N)nnc1COc1ccc2ccccc2c1O | 14.2 µM (inactive) | 22.3 µM (inactive) | 29 µM (inactive) | 33.8 µM (inactive) | 25.3 µM (inactive) | 49.2 µM (inactive) | – | 25.1 µM (inactive) | 9.75 µM (inactive) | 41.4 µM (inactive) | 25.2 µM (inactive) | 32.1 µM (inactive) | – | – | 30.1 µM (inactive) | 20.1 µM (inactive) | 44 µM (inactive) | 30 µM (inactive) | 4.48 µM (inactive) | –
4 | OCC1OC(Oc2cc(O)cc(/C=C\c3ccc(O)cc3)c2)C(O)C(O)C1O (stereo not drawn) | > 100 µM (inactive) | > 100 µM (inactive) | > 100 µM (inactive) | > 100 µM (inactive) | > 100 µM (inactive) | > 100 µM (inactive) | > 100 µM (inactive) | > 100 µM (inactive) | > 100 µM (inactive) | > 100 µM (inactive) | – | > 100 µM (inactive) | > 100 µM (inactive) | > 100 µM (inactive) | – | > 100 µM (inactive) | > 100 µM (inactive) | > 100 µM (inactive) | – | > 100 µM (inactive)
5 | COc1ccc(OC)c(-c2nc3n(c2/C=C2/C(=O)Nc4ccccc42)CCS3)c1 | > 100 µM (inactive) | 35 µM (inactive) | 35 µM (inactive) | 64.4 µM (inactive) | 47.6 µM (inactive) | 41.2 µM (inactive) | 36.1 µM (inactive) | 63.7 µM (inactive) | 45.2 µM (inactive) | 67 µM (inactive) | – | 26 µM (inactive) | 35 µM (inactive) | 68.1 µM (inactive) | 37.4 µM (inactive) | 53.5 µM (inactive) | 72.9 µM (inactive) | > 100 µM (inactive) | 92.7 µM (inactive) | 32.8 µM (inactive)
6 | CC(=O)c1nc2ccccc2n1C(C)C(=O)c1ccccc1 (stereo not drawn) | – | 51.6 µM (inactive) | 33 µM (inactive) | 64.9 µM (inactive) | > 100 µM (inactive) | 91.8 µM (inactive) | 41.8 µM (inactive) | 27.1 µM (inactive) | 50.4 µM (inactive) | 57.3 µM (inactive) | – | – | 39.6 µM (inactive) | 23.1 µM (inactive) | 42.8 µM (inactive) | – | 69 µM (inactive) | 77.6 µM (inactive) | 50.2 µM (inactive) | 36.3 µM (inactive)
7 | CCOc1c(OC)cc(C2c3cc4c(c(OCC)c3CC3COC(=O)C32)OCO4)cc1OC (stereo not drawn) | 3.24 µM (inactive) | 3.75 µM (inactive) | 3.21 µM (inactive) | 2.69 µM (inactive) | 2.47 µM (inactive) | 5.87 µM (inactive) | 1.12 µM (active) | 2.86 µM (inactive) | 2.16 µM (inactive) | 1.63 µM (inactive) | – | 13.2 µM (inactive) | 2.67 µM (inactive) | 2.11 µM (inactive) | 3.15 µM (inactive) | 1.63 µM (inactive) | 4.03 µM (inactive) | 3.65 µM (inactive) | 11.1 µM (inactive) | 0.247 µM (active)
8 | CN(C)c1nncc2[nH]cnc12 | > 100 µM (inactive) | > 100 µM (inactive) | > 100 µM (inactive) | > 100 µM (inactive) | > 100 µM (inactive) | > 100 µM (inactive) | > 100 µM (inactive) | > 100 µM (inactive) | > 100 µM (inactive) | > 100 µM (inactive) | – | > 100 µM (inactive) | > 100 µM (inactive) | > 100 µM (inactive) | > 100 µM (inactive) | > 100 µM (inactive) | – | > 100 µM (inactive) | – | > 100 µM (inactive)
9 | C[C@H](CCC(=O)O)[C@H]1CC[C@H]2[C@@H]3CC[C@@H]4C[C@H](O)CC[C@]4(C)[C@H]3C[C@H](O)[C@]12C [DEOXYCHOLIC ACID] | 44.7 µM (inactive) | 25.8 µM (inactive) | 40.7 µM (inactive) | 65.6 µM (inactive) | 34.1 µM (inactive) | > 100 µM (inactive) | 20.4 µM (inactive) | 35.9 µM (inactive) | 32.9 µM (inactive) | 30.7 µM (inactive) | 61.2 µM (inactive) | 31.2 µM (inactive) | 23.9 µM (inactive) | 39.4 µM (inactive) | 34.3 µM (inactive) | 37.8 µM (inactive) | 26.7 µM (inactive) | 40.1 µM (inactive) | 32.8 µM (inactive) | –
10 | Cc1ccc(S(=O)(=O)NC(=O)NC(C(=O)O)C(C)C)cc1 (stereo not drawn) | > 100 µM (inactive) | > 100 µM (inactive) | > 100 µM (inactive) | > 100 µM (inactive) | > 100 µM (inactive) | > 100 µM (inactive) | – | > 100 µM (inactive) | > 100 µM (inactive) | > 100 µM (inactive) | – | > 100 µM (inactive) | > 100 µM (inactive) | > 100 µM (inactive) | > 100 µM (inactive) | > 100 µM (inactive) | > 100 µM (inactive) | > 100 µM (inactive) | > 100 µM (inactive) | > 100 µM (inactive)
11 | C[N+]12C=CC=C1C(N1CCCC1)c1scc(-c3ccc(F)cc3)c12 (stereo not drawn) | 32.4 µM (inactive) | 10.4 µM (inactive) | – | 81.7 µM (inactive) | 18.3 µM (inactive) | – | 14.6 µM (inactive) | 56 µM (inactive) | 46.2 µM (inactive) | 6.71 µM (inactive) | – | 10.5 µM (inactive) | 1.89 µM (inactive) | 40.4 µM (inactive) | 69.8 µM (inactive) | 13.5 µM (inactive) | > 100 µM (inactive) | 15.1 µM (inactive) | 60.4 µM (inactive) | 11 µM (inactive)
12 | O=C1CCN/C(=N\C(=O)C(F)(F)F)N1CCc1c[nH]c2ccccc12 | > 100 µM (inactive) | > 100 µM (inactive) | > 100 µM (inactive) | > 100 µM (inactive) | > 100 µM (inactive) | > 100 µM (inactive) | > 100 µM (inactive) | > 100 µM (inactive) | > 100 µM (inactive) | > 100 µM (inactive) | > 100 µM (inactive) | > 100 µM (inactive) | > 100 µM (inactive) | > 100 µM (inactive) | > 100 µM (inactive) | > 100 µM (inactive) | > 100 µM (inactive) | > 100 µM (inactive) | > 100 µM (inactive) | –
13 | CC(CO)(CO)/N=C/c1cc(I)cc(I)c1O | 22.3 µM (inactive) | 21.3 µM (inactive) | 22.2 µM (inactive) | 11.6 µM (inactive) | 21.4 µM (inactive) | 26 µM (inactive) | 9.79 µM (inactive) | 54.8 µM (inactive) | 14.8 µM (inactive) | 12.8 µM (inactive) | – | 12.2 µM (inactive) | 9.98 µM (inactive) | 15.5 µM (inactive) | 14.1 µM (inactive) | 13.8 µM (inactive) | 13.6 µM (inactive) | 20.3 µM (inactive) | 13.1 µM (inactive) | 8.53 µM (inactive)
14 | NC1=NN(c2ccccc2)C2(c3ccncc3C(=O)O)C1C(N)=NN2c1ccccc1 (stereo not drawn) | > 100 µM (inactive) | > 100 µM (inactive) | > 100 µM (inactive) | > 100 µM (inactive) | > 100 µM (inactive) | – | > 100 µM (inactive) | > 100 µM (inactive) | > 100 µM (inactive) | > 100 µM (inactive) | > 100 µM (inactive) | > 100 µM (inactive) | > 100 µM (inactive) | > 100 µM (inactive) | > 100 µM (inactive) | > 100 µM (inactive) | > 100 µM (inactive) | > 100 µM (inactive) | > 100 µM (inactive) | –
15 | CN1CC[C@]23c4c5ccc(O)c4O[C@H]2C(O)CC[C@@]3(O)[C@H]1C5 (stereo partly drawn) | > 100 µM (inactive) | > 100 µM (inactive) | – | > 100 µM (inactive) | > 100 µM (inactive) | > 100 µM (inactive) | > 100 µM (inactive) | > 100 µM (inactive) | > 100 µM (inactive) | > 100 µM (inactive) | – | > 100 µM (inactive) | – | > 100 µM (inactive) | > 100 µM (inactive) | > 100 µM (inactive) | > 100 µM (inactive) | > 100 µM (inactive) | > 100 µM (inactive) | > 100 µM (inactive)
